Source: PubChem BioAssay AID212 (DTP/NCI, 2004)
Where “and” joins values, the source holds several entries; their conditions need not be identical. Equal values may be shown once. Records with an inconclusive call do not appear.

Tested on: BDF1 mice, colon carcinoma 38 sc, T/C %
Test: NCI In Vivo Anticancer Drug Screen. Data for tumor model Colon Carcinoma 38 (subcutaneous) in B6D2F1 (BDF1) mice
Conditions: endpoint: median tumor weight (est.), higher = larger tumour
Summary of the method: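 Transplantable tumor in mice; compound-treated vs vehicle-dosed controls. Measured survival or tumor size; value = T ÷ C.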

[1] = dose: 50.0 mg/kg/injection, schedule: Q07DX002 (ip), vehicle: saline with Tween-80
[2] = dose: 100.0 mg/kg/injection, schedule: Q07DX002 (ip), vehicle: saline with Tween-80
[3] = dose: 200.0 mg/kg/injection, schedule: Q07DX002 (ip), vehicle: saline with Tween-80
[4] = dose: 400.0 mg/kg/injection, schedule: Q07DX002 (ip), vehicle: saline with Tween-80

CCCCCCCCCCCCCCCCCCCCCC(=O)Nc1ccn(C2OC(CO)C(O)C2O)c(=O)n1 (configuration not stated)
T/C (dose: 12.5 mg/kg/injection, schedule: Q07DX002 (ip), vehicle: saline): 80 % of control | T/C (dose: 25.0 mg/kg/injection, schedule: Q07DX002 (ip), vehicle: saline with Tween-80): 151 % of control | T/C (dose: 25.0 mg/kg/injection, schedule: Q07DX002 (ip), vehicle: saline): 119 % of control and 105 % of control | T/C [1]: 172 % of control | T/C [2]: 82 % of control | T/C (dose: 100.0 mg/kg/injection, schedule: Q07DX002 (ip), vehicle: saline): 52 % of control and 65 % of control | T/C [3]: 92 % of control | T/C (dose: 200.0 mg/kg/injection, schedule: Q07DX002 (ip), vehicle: saline): 52 % of control | T/C [4]: 10 % of control | T/C (dose: 400.0 mg/kg/injection, schedule: Q07DX002 (ip), vehicle: saline): 29 % of control

CCCCCC(O)C1C(=O)OC(C)C(O)/C=C/C=C/C=C/C=C/C=C(\C)C(O)C(O)C(O)CC(O)CC(O)CC(O)CC(O)CC1O (configuration not stated)
T/C (dose: 0.5 mg/kg/injection, schedule: Q07DX002 (ip), vehicle: saline): 92 % of control | T/C (dose: 1.0 mg/kg/injection, schedule: Q07DX002 (ip), vehicle: saline): 118 % of control | T/C (dose: 4.0 mg/kg/injection, schedule: Q07DX002 (ip), vehicle: saline): 90 % of control | T/C (dose: 8.0 mg/kg/injection, schedule: Q07DX002 (ip), vehicle: saline): 95 % of control

CN(C1=NS(=O)(=O)N=C(N(C)c2ccccc2)O1)c1ccccc1
T/C (dose: 12.5 mg/kg/injection, schedule: Q07DX003 (ip), vehicle: Klucel (hydroxypropylcellulose) (HPC)): 103 % of control | T/C (dose: 25.0 mg/kg/injection, schedule: Q07DX003 (ip), vehicle: Klucel (hydroxypropylcellulose) (HPC)): 68 % of control | T/C (dose: 100.0 mg/kg/injection, schedule: Q07DX002 (ip), vehicle: Klucel (hydroxypropylcellulose) (HPC)): 119 % of control | T/C (dose: 100.0 mg/kg/injection, schedule: Q07DX003 (ip), vehicle: Klucel (hydroxypropylcellulose) (HPC)): 101 % of control | T/C (dose: 200.0 mg/kg/injection, schedule: Q07DX002 (ip), vehicle: Klucel (hydroxypropylcellulose) (HPC)): 110 % of control | T/C (dose: 200.0 mg/kg/injection, schedule: Q07DX003 (ip), vehicle: Klucel (hydroxypropylcellulose) (HPC)): 113 % of control | T/C (dose: 400.0 mg/kg/injection, schedule: Q07DX002 (ip), vehicle: Klucel (hydroxypropylcellulose) (HPC)): 162 % of control | T/C (dose: 400.0 mg/kg/injection, schedule: Q07DX003 (ip), vehicle: Klucel (hydroxypropylcellulose) (HPC)): 113 % of control | T/C (dose: 800.0 mg/kg/injection, schedule: Q07DX002 (ip), vehicle: Klucel (hydroxypropylcellulose) (HPC)): 104 % of control | T/C (dose: 1600.0 mg/kg/injection, schedule: Q07DX002 (ip), vehicle: Klucel (hydroxypropylcellulose) (HPC)): 159 % of control

CC(=O)OC1C2OC3C=C(C)CCC3(CO)C(C)(C1OC(C)=O)C21CO1 (configuration not stated)
T/C (dose: 0.5 mg/kg/injection, schedule: Q07DX003 (ip), vehicle: saline): 50 % of control and 61 % of control | T/C (dose: 1.0 mg/kg/injection, schedule: Q07DX003 (ip), vehicle: saline): 87 % of control and 101 % of control | T/C (dose: 2.0 mg/kg/injection, schedule: Q07DX003 (ip), vehicle: saline): 111 % of control and 117 % of control | T/C (dose: 2.5 mg/kg/injection, schedule: Q01DX001 (ip), vehicle: saline): 266 % of control | T/C (dose: 4.0 mg/kg/injection, schedule: Q07DX003 (ip), vehicle: saline): 69 % of control and 75 % of control | T/C (dose: 5.0 mg/kg/injection, schedule: Q01DX001 (ip), vehicle: saline): 231 % of control | T/C (dose: 10.0 mg/kg/injection, schedule: Q01DX001 (ip), vehicle: saline): 173 % of control

Cc1c2cc[n+](C)cc2c(C)c2c1[nH]c1ccc(O)cc12
T/C (dose: 0.12 mg/kg/injection, schedule: Q07DX002 (ip), vehicle: water): 119 % of control | T/C (dose: 0.25 mg/kg/injection, schedule: Q07DX002 (ip), vehicle: water): 62 % of control | T/C (dose: 0.5 mg/kg/injection, schedule: Q07DX002 (ip), vehicle: water): 69 % of control | T/C (dose: 0.63 mg/kg/injection, schedule: Q07DX002 (ip), vehicle: water): 67 % of control | T/C (dose: 1.0 mg/kg/injection, schedule: Q07DX002 (ip), vehicle: water): 123 % of control | T/C (dose: 1.25 mg/kg/injection, schedule: Q07DX002 (ip), vehicle: water): 52 % of control | T/C (dose: 1.5 mg/kg/injection, schedule: Q07DX002 (ip), vehicle: water): 116 % of control | T/C (dose: 2.5 mg/kg/injection, schedule: Q07DX002 (ip), vehicle: water): 72 % of control | T/C (dose: 3.0 mg/kg/injection, schedule: Q07DX002 (ip), vehicle: water): 122 % of control | T/C (dose: 4.0 mg/kg/injection, schedule: Q07DX002 (ip), vehicle: water): 70 % of control | T/C (dose: 5.0 mg/kg/injection, schedule: Q07DX002 (ip), vehicle: water): 71 % of control

CC(=O)Nc1cscc1NC(C)=O
T/C [1]: 115 % of control | T/C [2]: 91 % of control | T/C [3]: 66 % of control | T/C [4]: 93 % of control | T/C (dose: 800.0 mg/kg/injection, schedule: Q07DX002 (ip), vehicle: saline with Tween-80): 73 % of control
